Source: patent US20220401423A1, “METHODS FOR TREATING INFLAMMATORY BOWEL DISEASE” (Angion Biomedica Corp., priority 2019, published 2022)

Key:
[1] = test system: Acetic acid-induced colitis; test: Acetic acid (AA) induced colitis mouse model; assay type: in vivo
Description: Acetic acid-induced colitis is a common experimental animal model for IBD. Animals treated with acetic acid develop many pathological and histopathological characteristics in common with human ulcerative colitis. Rectal administration of acetic acid damages the mucosal epithelium and induces ulcerative colitis. The severity of the mucosal lesions that develop in acetic acid-induced colitis depends on the acetic acid concentration and the length of exposure. For example, injection of 25% acetic acid (AA) into the gastric lumen causes larger ulcerative lesions than injection of 5% acetic acid. Different concentrations of acetic acid and different exposure times have been reported to induce IBD in a rat model. Transmural necrosis in all layers of the bowel wall, severe neutrophil infiltration of the intestinal tissue, goblet cell depletion, edema, and submucosal ulceration are common manifestations of this model. Bloody diarrhea, reduction of the intestinal mucus, decreased nucleic acid (DNA and RNA) and total protein content, and increased colon weight and vascular permeability have also been observed. […] Acetic acid-induced colitis is also associated with changes NF-κB, inhibitor of κB (IκB) and IκB kinase expression.
Male CD-1 mice were infused with 4% AA in saline in 150 μL volume through rectal enema under isoflurane anesthesia. A sham group (n=6) received an equivalent volume of saline.
The remaining AA-treated mice (n=9 for each group) were then randomized to vehicle and/or Compound 1 treatment at 50 mg/kg, PO, BID for 3 days.

TNBS-induced colitis [2] = test: TNBS-induced IBD/acute colitis mouse model, dose response (Example 3); assay type: in vivo
Description: Intracolonic administration of TNBS (2,4,6-trinitrobenzenesulfonic acid)/ethanol induces a severe illness characterized by bloody diarrhea and a dramatic loss of body weight during the first week with increased colon damage score (Mateus, V., et al. Clin. Exp. Gastroenterol. 2018; 11:325-334). TNBS-induced colitis, characteristic of acute colitis and the early phase of IBD, is a commonly utilized animal model in rodents that shares significant properties with human Crohn's disease. Advantages of this model include reproducibility and technical simplicity (Filipescu, I. E., et al. PLoS One 2018 Aug. 23; 13(8):e0202929). The use of TNBS-induced colitis has been valuable in elucidating the mechanisms that mediate disease immune-pathogenesis. TNBS-induced colitis is a well-validated animal model to assess compounds with potential therapeutic effects such as anti-TNFα, corticosteroids, natural compounds and traditional medicine (Mateus 2018; Filipescu 2018; Wirtz, S. et al. Nat. Protoc. 2017 July; 12(7):1295-1309). Compound 1 was therefore tested in the well-established model of TNBS-induced IBD/Acute Colitis.
In this IBD model, 2,4,6-trinitrobenzenesulfonic acid (TNBS) was used to induce disease. The inflammatory bowel disease (IBD)/acute colitis model was conducted in male CD-1 mice, body weights 30-35 grams, from Charles River Laboratories (CRL). After receipt from the vendor, animals were acclimatized to the animal facility at least 5 days following the animal facility standard operating procedures. All animals were fed the normal chow diet, had access to water ad libitum and housed in a single room of the animal facility with a 12:12 hr light-dark cycle and independent ventilation, temperature and humidity control.
Compound 1 was dissolved in distilled water at 0.9 mg/mL, 2.7 mg/mL and 8.1 mg/mL, and 200 μL was administered via oral gavage into each mouse.
Male CD-1 mice were starved overnight. Then, mice (n=33) were infused with […] (2 mg/mouse) in 50% ethanol in a 100 μL volume via rectal enema under isoflurane anesthesia. A sham group (n=6) received an equal volume of 50% ethanol. […] Remaining Sham (n=4) and TNBS mice (n=7/group) were randomized to vehicle or Compound 1 treatment at 5 mg/kg, 15 mg/kg, and 45 mg/kg, PO, BID for 4 days.
After 4 days of Compound 1 or vehicle treatment, mice were sacrificed. Body weight (FIG. 5), colon length (FIG. 6 and FIG. 8), colon weight (FIG. 7), and gross morphological score/disease severity scores (FIG. 9; normal=0 and severe=4) were recorded. Blood/serum was collected. The mid and distal part of the colon was fixed in 10% neutral buffered formalin and the proximal part of the colon was snap frozen in liquid nitrogen and stored at minus 80° C. until use.
Histological scoring. After overnight fixation in formalin, tissues were dehydrated (graded alcohols) and cleared (xylene) before being embedded in paraffin wax. Sections of tissue were cut and stained with hematoxylin and eosin (H & E) and scored in a blinded manner (FIG. 10). Histological scoring was based on a semi-quantitative scoring system as published (Lab Invest. 1993 August; 69(2):238-49). The following were ranked: the extent of the destruction of normal mucosal architecture (0, normal; 1, 2, and 3, mild, moderate, and extensive damage, respectively), presence and degree of cellular infiltration (0, normal; 1, 2, and 3, mild, moderate, and transmural infiltration, respectively), extent of muscle thickening (0, normal; 1, 2, and 3, mild, moderate, and extensive thickening, respectively), crypt damage/goblet cell depletion (0, no loss, 1, 2, 3 for mild, moderate and extensive loss of goblet cells respectively (FIG. 11). The scores for each feature were summed with a maximum possible colon injury score of 12 (FIG. 12).
Alcian Blue/Fast red staining. Formalin fixed, paraffin embedded colon tissue sections were used for Alcian blue staining to evaluate crypt damage/goblet cell loss. […]

[3] = test system: DSS-induced chronic colitis/IBD; test: DSS-induced chronic colitis/IBD mouse model; assay type: in vivo; conditions: 50 mg/kg, PO, BID, started 72 hours after DSS, 4 weeks; for colon length: compared to DSS-vehicle cohort
Description: DSS is a sulfated polymer that alters tight junction proteins, leading to the disruption of the intestinal barrier, and is toxic to epithelial cells. Results obtained in DSS-induced animal IBD models have helped to understand the pathogenesis of IBD and to screen potential therapeutic agents. DSS-induced IBD is simple and reproducible and results in symptoms resembling those of ulcerative colitis. The development of acute, chronic, or relapsing symptoms of IBD is dose-dependent, and the molecular weight of the DSS is key not only in the induction of colitis but also in the location of induction. […] Various DSS dosage and duration are used to induce IBD in some animal models. Following DSS administration, animals usually develop colitis with weight loss and severe, bloody diarrhea. DSS colitis is characterized by mucosal ulceration, leukocyte infiltration, intestinal crypt distortion and epithelial hyperplasia.
Adult male CD-1 mice were fed 3% DSS in drinking water for 5 days with alternate cycles of normal drinking water for 5 days and continued a total of 3 DSS cycles in 4 weeks. This model has been established to induce chronic colitis/IBD. Vehicle (n=10/group) or Compound 1 (50 mg/kg, PO, BID) were administered 72 hours after DSS and continued treatment for 4 weeks, then all mice were sacrificed. A small group (n=6) with normal drinking water was included as a sham control. Gross morphological and histopathological end points were evaluated. Additionally, tissue from the middle colon (100 mg) from all groups was subjected to hydroxyproline assay for collagen estimation as a fibrotic end point.

TNBS-induced colitis [4] = test: TNBS-induced colitis mouse model, 50 mg/kg (Example 5); assay type: in vivo
Description: Using the same TNBS mouse model for IBD as described in Example 3, an experiment was performed with a 50 mg/kg dose of Compound 1, as described below.
Male CD-1 mice were infused with TNBS (2 mg/mouse) in 45% ethanol and 5% PBS in 150 μL volume through rectal enema under isoflurane anesthesia. A sham group (n=6) received an equal volume of 45% ethanol and PBS mixture.
Remaining TNBS mice (n=12/group) were randomized to vehicle or Compound 1 at 50 mg/kg, PO, BID for 3 days.

collagen levels = test: Antifibrotic activity, collagen levels (FIG. 23); conditions: model not stated
[5] = 50 mg/kg, PO, BID for 3 days, started 72 hours after AA, compared to vehicle cohort
[6] = 15 mg/kg and 45 mg/kg, BID, PO, 4 days, started 3 days after TNBS
[7] = 15 mg/kg and 45 mg/kg, BID, PO, 4 days, compared to pre-treatment and vehicle treated animals
[8] = 50 mg/kg, PO, BID for 3 days, started 72 hours after TNBS, compared to vehicle cohort

In the case of `COC(=O)c1ccc2c(n1)NC(=O)/C2=C(\Nc1ccc(N(C)C(=O)CN2CCN(C)CC2)cc1)c1ccccc1` [Compound 1, (Z)-methyl 3-(((4-(N-methyl-2-(4-methylpiperazin-1-yl)acetamido)phenyl)amino)(phenyl)methylene)-2-oxo-2,3-dihydro-1H-pyrrolo[2,3-b]pyridine-6-carboxylate], the “decrease in colon length” value [1, 5] is reported as “significantly mitigated the decrease”, the “gross morphological colon damage” value [1, 5] is reported as “significantly mitigated” and the “histopathological colon damage (mucosal wall thickness, crypt/villi architecture)” value [1, 5] is reported as “significantly mitigated”. The “AA-induced colitis (colon length, colon gross damage score, histopathological damage score, Alcian blue, H&E staining)” value ([1]; FIG. 2A-2E) was “significantly decreased”, the “MPO-staining of colon tissue” value (TNBS-induced colitis [2]; 5 mg/kg and higher, BID, PO, 4 days, versus TNBS+vehicle treated animals) was “significantly decreased” and the body weight (TNBS-induced colitis [2]; [6]) was “significantly restored”. The colon length (TNBS-induced colitis [2]; [6]) was “significantly restored”, the colon weight (TNBS-induced colitis [2]; [6]) was “significantly restored” and the “TNBS-induced goblet cell loss (Alcian Blue staining)” value (TNBS-induced colitis [2]; [7]) was “significantly reduced”. For the same compound, the “colon histology (H&E histological scoring)” value (TNBS-induced colitis [2]; [7]) was “markedly improved”, the “Disease Severity Index” value (TNBS-induced colitis [2]; 15 mg/kg and 45 mg/kg, BID, PO, 4 days, score 0 (normal)-4 (severe)) was “marked improvement” and the “F4/80-staining of colon tissue” value (TNBS-induced colitis [2]; 15 mg/kg and higher, BID, PO, 4 days, versus TNBS+vehicle treated animals) was “significantly decreased”. The “IBD symptoms (body weight, colon length, colon weight, disease severity index)” value (TNBS-induced colitis [2]; FIG. 5-9) was “recover from IBD symptoms”, the “macroscopic colon damage score (appearance, inflammation, rectal bleeding)” value [3] was “decreased” and the “histopathological injury score (crypt damage, epithelial erosion, inflammatory cell infiltration)” value ([3]; H&E stained colon sections) was “decreased”. For the same compound, the colon length [3] was “significantly increased”, the colon length ([3]; listed as test compound) was “significantly restored” and the “colonic hydroxyproline (HYP)” value ([3]; middle colon tissue) was “decreased”. For the same compound, the “colon architecture (Alcian blue staining for goblet cells of crypt/villi)” value (TNBS-induced colitis [4]; [8]) was “preserved”, the colon damage score (TNBS-induced colitis [4]; [8]) was “decreased” and the colon histopathological score (TNBS-induced colitis [4]; [8]) was “decreased”. The colon length (TNBS-induced colitis [4]; [8]) was “restored”, the mortality (TNBS-induced colitis [4]; [8]) was “significantly decreased” and the “TNBS-induced increase in serum cytokines (interleukin-1α, TNFα, PDGF)” value (TNBS-induced colitis [4]; 50 mg/kg, PO, BID for 3 days, serum) was “significantly blocked”. For the same compound, the “IBD symptoms (colon length, colon gross damage score, Alcian blue staining of goblet cells, colon histopathological score)” value (TNBS-induced colitis [4]; FIG. 25A-25F) was “recover from IBD symptoms”, the survival (TNBS-induced colitis [4]; TNBS induced colitis mortality model, FIG. 3) was “increased” and the “collagen levels (antifibrotic activity)” value (collagen levels) was “reduced”.
